Results published in patent publication US20120258971A1, “THERAPEUTIC AGENT FOR CHRONIC PAIN” (OTSUKA PHARMACEUTICAL CO., LTD., priority 2009, published 2012).
Where a name gives a salt, the structure may show the parent alone.

Test system: chronic occipital-cervical pain
Test: Pain intensity (numerical rating scale, NRS) in a chronic pain patient during drug treatment
Type: in vivo, human
Details: for Effect on pain of the chronic pain patient (in words): single chronic pain patient, oral administration, overall conclusion
Description: Morphine, fluvoxamine, aripiprazole, and other drugs were administered for about 11 months to a patient who was diagnosed as a chronic pain sufferer with chronic occipital-cervical pain that had continued for ten years or more. The intensity of the pain in the patients' occipital-cervical region (neck) was evaluated over time.
The intensity of pain was evaluated using a numerical rating scale (NRS) in which pain was orally reported on an 11-step scale (0 to 10). This evaluation method numerically expresses (quantifies) the degree of pain on a scale of 0 (no pain) to 10 (worst conceivable pain). This method provides a good reflection of the degree of pain of a patient before and after treatment.
From the 4th week of the first month, in addition to morphine, oral administration of fluvoxamine (Depromel tablets; produced by Meiji Seika Pharma Co., Ltd.) in a dose of 50 mg/day was started.
Then, from the 4th week of the 4th month, aripiprazole (Abilify tablets; produced by Otsuka Pharmaceutical Co., Ltd.) was orally administered in a dose of 3 mg/day. […] Furthermore, even when the administration of morphine was stopped from the 8th month, the NRS value remained at 0.
Thereafter, when the dose of aripiprazole (Abilify tablets; produced by Otsuka Pharmaceutical Co., Ltd.) was increased to 9 mg/day after the 4th week of the 9th month, and further increased to 12 mg/day after the 4th week of the 10th month, the NRS value was 0, and no change was observed.

Row | Structure (SMILES) | NRS value (aripiprazole 3 mg/day oral from 4th week of 4th month, first week of the 5th month) | NRS value (aripiprazole 3 mg/day oral, from the second week of the 6th month) | NRS value (aripiprazole increased to 9 mg/day (after 4th week of 9th month) and 12 mg/day (after 4th week of 10th month)) | NRS value (aripiprazole, after morphine was stopped from the 8th month) | Effect on pain of the chronic pain patient (in words)
1 | O=C1CCc2ccc(OCCCCN3CCN(c4cccc(Cl)c4Cl)CC3)cc2N1 [aripiprazole, 7-{4-[4-(2,3-dichlorophenyl)-1-piperazinyl]butoxy}-3,4-dihydrocarbostyril] | 1 | 0 | 0 | 0 | could dramatically reduce the pain
2 | COCCCC/C(=N\OCCN)c1ccc(C(F)(F)F)cc1 [fluvoxamine] |  |  |  |  | the pain was not relieved at all
3 | CN1CC[C@]23c4c5ccc(O)c4O[C@H]2[C@@H](O)C=C[C@H]3[C@H]1C5 [morphine hydrochloride tablets] |  |  |  |  | the pain was not relieved
